Assay results taken from ChEMBL document CHEMBL3112480, “γ-Alkylidene-γ-lactones and isobutylpyrrol-2(5H)-ones analogues to rubrolides as inhibitors of biofilm formation by gram-positive and gram-negative bacteria” (Bioorg Med Chem Lett, 2014).
Converted amounts (≈) assume the structure as drawn.

Key:
Pseudomonas aeruginosa [1] = experiment: Antibacterial activity against Pseudomonas aeruginosa ATCC 27853 assessed as effect on planktonic growth at 0.68 ug/ml after 20 hrs relative to control; type: functional
Staphylococcus aureus [2] = experiment: Antibacterial activity against Staphylococcus aureus ATCC 25923 assessed as effect on planktonic growth at 0.34 ug/ml after 20 hrs relative to control; type: functional
Staphylococcus aureus [3] = experiment: Antibacterial activity against Staphylococcus aureus ATCC 25923 assessed as effect on planktonic growth at 10.9 ug/ml after 20 hrs relative to control; type: functional
[4] = tested on: Staphylococcus epidermidis; experiment: Antibacterial activity against Staphylococcus epidermidis ATCC 35547 assessed as effect on planktonic growth at 1.37 ug/ml after 20 hrs relative to control; type: functional
[5] = tested on: Staphylococcus epidermidis; experiment: Antibacterial activity against Staphylococcus epidermidis ATCC 35547 assessed as effect on planktonic growth at 0.17 ug/ml after 20 hrs relative to control; type: functional
Streptococcus mutans [6] = experiment: Antibacterial activity against Streptococcus mutans ATCC 25175 assessed as effect on planktonic growth at 10.9 ug/ml after 20 hrs relative to control; type: functional
Pseudomonas aeruginosa [7] = experiment: Antibacterial activity against Pseudomonas aeruginosa ATCC 27853 assessed as effect on planktonic growth at 21.9 ug/ml after 20 hrs relative to control; type: functional
Streptococcus mutans [8] = experiment: Antibacterial activity against Streptococcus mutans ATCC 25175 assessed as effect on planktonic growth at 0.17 ug/ml after 20 hrs relative to control; type: functional
Pseudomonas aeruginosa [9] = experiment: Antibacterial activity against Pseudomonas aeruginosa ATCC 27853 assessed as effect on planktonic growth at 87.5 ug/ml after 20 hrs relative to control; type: functional
[10] = tested on: Staphylococcus epidermidis; experiment: Antibacterial activity against Staphylococcus epidermidis ATCC 35547 assessed as effect on planktonic growth at 87.5 ug/ml after 20 hrs relative to control; type: functional
Staphylococcus aureus [11] = experiment: Antibacterial activity against Staphylococcus aureus ATCC 25923 assessed as effect on planktonic growth at 87.5 ug/ml after 20 hrs relative to control; type: functional
Staphylococcus aureus [12] = experiment: Antibacterial activity against Staphylococcus aureus ATCC 25923 assessed as effect on planktonic growth at 0.68 ug/ml after 20 hrs relative to control; type: functional
Streptococcus mutans [13] = experiment: Antibacterial activity against Streptococcus mutans ATCC 25175 assessed as effect on planktonic growth at 87.5 ug/ml after 20 hrs relative to control; type: functional
Pseudomonas aeruginosa [14] = experiment: Antibacterial activity against Pseudomonas aeruginosa ATCC 27853 assessed as effect on planktonic growth at 0.17 ug/ml after 20 hrs relative to control; type: functional
[15] = tested on: Staphylococcus epidermidis; experiment: Antibacterial activity against Staphylococcus epidermidis ATCC 35547 assessed as inhibition of biofilm formation after 20 hrs by crystal-violet staining method; type: functional, organism-based; conditions: for IC50: ATCC 35547, 20 h
Pseudomonas aeruginosa [16] = experiment: Antibacterial activity against Pseudomonas aeruginosa ATCC 27853 assessed as effect on planktonic growth at 10.9 ug/ml after 20 hrs relative to control; type: functional
Streptococcus mutans [17] = experiment: Antibacterial activity against Streptococcus mutans ATCC 25175 assessed as effect on planktonic growth at 0.68 ug/ml after 20 hrs relative to control; type: functional
Pseudomonas aeruginosa [18] = experiment: Antibacterial activity against Pseudomonas aeruginosa ATCC 27853 assessed as effect on planktonic growth at 2.73 ug/ml after 20 hrs relative to control; type: functional
[19] = tested on: Staphylococcus epidermidis; experiment: Antibacterial activity against Staphylococcus epidermidis ATCC 35547 assessed as effect on planktonic growth at 43.8 ug/ml after 20 hrs relative to control; type: functional
[20] = tested on: Staphylococcus epidermidis; experiment: Antibacterial activity against Staphylococcus epidermidis ATCC 35547 assessed as effect on planktonic growth at 5.5 ug/ml after 20 hrs relative to control; type: functional
Pseudomonas aeruginosa [21] = experiment: Antibacterial activity against Pseudomonas aeruginosa ATCC 27853 assessed as effect on planktonic growth at 43.8 ug/ml after 20 hrs relative to control; type: functional
Streptococcus mutans [22] = experiment: Antibacterial activity against Streptococcus mutans ATCC 25175 assessed as effect on planktonic growth at 1.37 ug/ml after 20 hrs relative to control; type: functional
[23] = tested on: Staphylococcus epidermidis; experiment: Antibacterial activity against Staphylococcus epidermidis ATCC 35547 assessed as effect on planktonic growth at 21.9 ug/ml after 20 hrs relative to control; type: functional
Staphylococcus aureus [24] = experiment: Antibacterial activity against Staphylococcus aureus ATCC 25923 assessed as effect on planktonic growth at 21.9 ug/ml after 20 hrs relative to control; type: functional
Pseudomonas aeruginosa [25] = experiment: Antibacterial activity against Pseudomonas aeruginosa ATCC 27853 assessed as effect on planktonic growth at 1.37 ug/ml after 20 hrs relative to control; type: functional
Streptococcus mutans [26] = experiment: Antibacterial activity against Streptococcus mutans ATCC 25175 assessed as effect on planktonic growth at 0.34 ug/ml after 20 hrs relative to control; type: functional
Staphylococcus aureus [27] = experiment: Antibacterial activity against Staphylococcus aureus ATCC 25923 assessed as effect on planktonic growth at 43.8 ug/ml after 20 hrs relative to control; type: functional
Staphylococcus aureus [28] = experiment: Antibacterial activity against Staphylococcus aureus ATCC 25923 assessed as effect on planktonic growth at 5.5 ug/ml after 20 hrs relative to control; type: functional
Staphylococcus aureus [29] = experiment: Antibacterial activity against Staphylococcus aureus ATCC 25923 assessed as effect on planktonic growth at 1.37 ug/ml after 20 hrs relative to control; type: functional
Pseudomonas aeruginosa [30] = experiment: Antibacterial activity against Pseudomonas aeruginosa ATCC 27853 assessed as effect on planktonic growth at 0.34 ug/ml after 20 hrs relative to control; type: functional
Streptococcus mutans [31] = experiment: Antibacterial activity against Streptococcus mutans ATCC 25175 assessed as effect on planktonic growth at 21.9 ug/ml after 20 hrs relative to control; type: functional
Pseudomonas aeruginosa [32] = experiment: Antibacterial activity against Pseudomonas aeruginosa ATCC 27853 assessed as inhibition of biofilm formation after 20 hrs by crystal-violet staining method; type: functional, organism-based; conditions: for IC50: ATCC 27853, 20 h
[33] = tested on: Staphylococcus epidermidis; experiment: Antibacterial activity against Staphylococcus epidermidis ATCC 35547 assessed as effect on planktonic growth at 10.9 ug/ml after 20 hrs relative to control; type: functional
[34] = tested on: Staphylococcus epidermidis; experiment: Antibacterial activity against Staphylococcus epidermidis ATCC 35547 assessed as effect on planktonic growth at 0.68 ug/ml after 20 hrs relative to control; type: functional
Staphylococcus aureus [35] = experiment: Antibacterial activity against Staphylococcus aureus ATCC 25923 assessed as effect on planktonic growth at 0.17 ug/ml after 20 hrs relative to control; type: functional
Streptococcus mutans [36] = experiment: Antibacterial activity against Streptococcus mutans ATCC 25175 assessed as inhibition of biofilm formation at 44 ug/ml after 20 hrs by crystal-violet staining method relative to control; type: functional; conditions: ATCC 25175, 20 h
Streptococcus mutans [37] = experiment: Antibacterial activity against Streptococcus mutans ATCC 25175 assessed as effect on planktonic growth at 5.5 ug/ml after 20 hrs relative to control; type: functional
Staphylococcus aureus [38] = experiment: Antibacterial activity against Staphylococcus aureus ATCC 25923 assessed as effect on planktonic growth at 2.73 ug/ml after 20 hrs relative to control; type: functional
Streptococcus mutans [39] = experiment: Antibacterial activity against Streptococcus mutans ATCC 25175 assessed as effect on planktonic growth at 2.73 ug/ml after 20 hrs relative to control; type: functional
Pseudomonas aeruginosa [40] = experiment: Antibacterial activity against Pseudomonas aeruginosa ATCC 27853 assessed as effect on planktonic growth at 5.5 ug/ml after 20 hrs relative to control; type: functional
[41] = tested on: Staphylococcus epidermidis; experiment: Antibacterial activity against Staphylococcus epidermidis ATCC 35547 assessed as effect on planktonic growth at 0.34 ug/ml after 20 hrs relative to control; type: functional
[42] = tested on: Staphylococcus epidermidis; experiment: Antibacterial activity against Staphylococcus epidermidis ATCC 35547 assessed as effect on planktonic growth at 2.73 ug/ml after 20 hrs relative to control; type: functional
Streptococcus mutans [43] = experiment: Antibacterial activity against Streptococcus mutans ATCC 25175 assessed as effect on planktonic growth at 43.8 ug/ml after 20 hrs relative to control; type: functional

`COc1ccc(C)cc1C1=C(Br)C(=O)N(CC(C)C)/C1=C/c1cccc(Cl)c1` was tested, and the Activity (Pseudomonas aeruginosa [1]) was -1.3%, the Activity (Staphylococcus aureus [2]) was 2.9% and the Activity (Staphylococcus aureus [3]) was 0%. The Activity [4] was 4.2%, the Activity [5] was 13.9% and the Activity (Streptococcus mutans [6]) was -12.4%. The Activity (Pseudomonas aeruginosa [7]) was 7.8%, the Activity (Streptococcus mutans [8]) was -1.7% and the Activity (Pseudomonas aeruginosa [9]) was 29.8%. It also gave an Activity [10] of 39.2%, an Activity (Staphylococcus aureus [11]) of -3.2% and an Activity (Staphylococcus aureus [12]) of 5.8%. The Activity (Streptococcus mutans [13]) was -32.5%, the Activity (Pseudomonas aeruginosa [14]) was -2.3% and the inhibition [15] was “Dose-dependent effect”. It also gave an IC50 [15] of 81.4 µg/mL (≈ 177 µM), an Activity (Pseudomonas aeruginosa [16]) of 1.8% and an Activity (Streptococcus mutans [17]) of -2.3%. For the same compound, the Activity (Pseudomonas aeruginosa [18]) was 0.3%, the Activity [19] was 33.5% and the Activity [20] was 8.4%. For the same compound, the Activity (Pseudomonas aeruginosa [21]) was 10.5%, the Activity (Streptococcus mutans [22]) was -4.9% and the Activity [23] was 16.6%. It also gave an Activity (Staphylococcus aureus [24]) of 0.6%, an Activity (Pseudomonas aeruginosa [25]) of -0.9% and an Activity (Streptococcus mutans [26]) of -2.3%. It also gave an Activity (Staphylococcus aureus [27]) of 1.8%, an Activity (Staphylococcus aureus [28]) of 4.6% and an Activity (Staphylococcus aureus [29]) of 12.5%. For the same compound, the Activity (Pseudomonas aeruginosa [30]) was -2.2%, the Activity (Streptococcus mutans [31]) was -22.7% and the inhibition (Pseudomonas aeruginosa [32]) was “Dose-dependent effect”. The IC50 (Pseudomonas aeruginosa [32]) was 2.4 µg/mL (≈ 5.21 µM), the Activity [33] was 14.3% and the Activity [34] was 6.3%. It also gave an Activity (Staphylococcus aureus [35]) of 4.1%, an inhibition at 44 µg/mL (Streptococcus mutans [36]) of 31.7% and an Activity (Streptococcus mutans [37]) of -6.4%. For the same compound, the Activity (Staphylococcus aureus [38]) was 9.2%, the Activity (Streptococcus mutans [39]) was -6.8% and the Activity (Pseudomonas aeruginosa [40]) was 1.5%. For the same compound, the Activity [41] was 16.2%, the Activity [42] was 18.1% and the Activity (Streptococcus mutans [43]) was -28.3%.

For `COc1ccc(C)cc1C1=C(Br)C(=O)N(CC(C)C)/C1=C\c1cccc(Cl)c1`, the Activity (Pseudomonas aeruginosa [1]) was 0.8%, the Activity (Staphylococcus aureus [2]) was 11.8% and the Activity (Staphylococcus aureus [3]) was 13.2%. It also gave an Activity [4] of 6.4%, an Activity [5] of 5.6% and an Activity (Streptococcus mutans [6]) of -32.3%. For the same compound, the Activity (Pseudomonas aeruginosa [7]) was 21.3%, the Activity (Streptococcus mutans [8]) was -4.4% and the Activity (Pseudomonas aeruginosa [9]) was 35.3%. It also gave an Activity [10] of -12.6%, an Activity (Staphylococcus aureus [11]) of 4.8% and an Activity (Staphylococcus aureus [12]) of 9.2%. The Activity (Streptococcus mutans [13]) was -46.7%, the Activity (Pseudomonas aeruginosa [14]) was 0.9% and the inhibition [15] was “Dose-dependent effect”. It also gave an IC50 [15] of 67.4 µg/mL (≈ 146 µM), an Activity (Pseudomonas aeruginosa [16]) of 13.5% and an Activity (Streptococcus mutans [17]) of -6%. For the same compound, the Activity (Pseudomonas aeruginosa [18]) was 3%, the Activity [19] was -38.8% and the Activity [20] was 1.1%. For the same compound, the Activity (Pseudomonas aeruginosa [21]) was 25.6%, the Activity (Streptococcus mutans [22]) was -14.9% and the Activity [23] was -38.6%. It also gave an Activity (Staphylococcus aureus [24]) of 4%, an Activity (Pseudomonas aeruginosa [25]) of 0% and an Activity (Streptococcus mutans [26]) of -4.1%. For the same compound, the Activity (Staphylococcus aureus [27]) was 6.6%, the Activity (Staphylococcus aureus [28]) was 18.4% and the Activity (Staphylococcus aureus [29]) was 12%. For the same compound, the Activity (Pseudomonas aeruginosa [30]) was 0.8%, the Activity (Streptococcus mutans [31]) was -33.6% and the inhibition (Pseudomonas aeruginosa [32]) was “Dose-dependent effect”. For the same compound, the IC50 (Pseudomonas aeruginosa [32]) was 0.6 µg/mL (≈ 1.3 µM), the Activity [33] was -19.8% and the Activity [34] was -4.2%. The Activity (Staphylococcus aureus [35]) was 10.8%, the inhibition at 44 µg/mL (Streptococcus mutans [36]) was 34% and the Activity (Streptococcus mutans [37]) was -26.3%. It also gave an Activity (Staphylococcus aureus [38]) of 12.6%, an Activity (Streptococcus mutans [39]) of -18.8% and an Activity (Pseudomonas aeruginosa [40]) of 8.8%. The Activity [41] was 2.4%, the Activity [42] was 11.4% and the Activity (Streptococcus mutans [43]) was -42.5%.
